Data taken from PubChem BioAssay (NCI).
Values joined by “and” are separate entries in the source; they are usually repeats but may differ in a detail not shown here. Equal entries are not always repeated.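 Where inhibition never reached the appropriate level, the endpoint shown equals the highest concentration tested. Otherwise, values were interpolated linearly from a five-concentration, 48-hour dose response in 96-well plates. Abbreviation: GI50, concentration required for 50% inhibition of growth. The concentration for full growth arrest is given as TGI.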 Where a SMILES comes first, the peptide text is derived from it. Bridges are numbered along the chain shown (N, C = ends). [ ]: non-standard residue; d: D form. The star is where a group is joined. ξ: configuration not given here. ξDab(CH2SO3H) = NC(CCNCS(=O)(=O)O)C(=O)O; Heptanoyl(6-Me) = CC(C)CCCCC(=O)*; Dab = NCC[CH](N)C(=O)O

Legend:
Test in all cases: NCI tumour cell line growth inhibition, 48 h
IGROV1 ovarian = system: IGROV1 ovarian
HCT-15 colon = system: HCT-15 colon
NCI-H226 lung = system: NCI-H226 lung
OVCAR-3 ovarian = system: OVCAR-3 ovarian
MOLT-4 leukemia = system: MOLT-4 leukemia
CAKI-1 renal = system: CAKI-1 renal
SK-OV-3 ovarian = system: SK-OV-3 ovarian
M14 melanoma = system: M14 melanoma
NCI-H522 lung = system: NCI-H522 lung
SF-539 CNS = system: SF-539 CNS

Structure (SMILES)	GI50 (IGROV1 ovarian) [µM]	TGI (IGROV1 ovarian)	GI50 (HCT-15 colon)	TGI (HCT-15 colon)	GI50 (NCI-H226 lung)	TGI (NCI-H226 lung)	GI50 (OVCAR-3 ovarian) [µM]	TGI (OVCAR-3 ovarian)	GI50 (MOLT-4 leukemia)	TGI (MOLT-4 leukemia)	GI50 (CAKI-1 renal)	TGI (CAKI-1 renal)	GI50 (SK-OV-3 ovarian)	TGI (SK-OV-3 ovarian)	GI50 (M14 melanoma) [µM]	TGI (M14 melanoma) [µM]	GI50 (NCI-H522 lung)	TGI (NCI-H522 lung)	GI50 (SF-539 CNS) [µM]	TGI (SF-539 CNS)
CCC(C)C1NC(=O)C(CCNCS(=O)(=O)O)NC(=O)C(NC(=O)C(CCNCS(=O)(=O)O)NC(=O)C(NC(=O)C(CCNCS(=O)(=O)O)NC(=O)CCCCC(C)C)C(C)O)CCNC(=O)C(C(C)O)NC(=O)C(CCNCS(=O)(=O)O)NC(=O)C(CCNCS(=O)(=O)O)NC(=O)C(C(C)CC)NC1=O (centres undefined) ({Heptanoyl(6-Me)}-[ξDab(CH2SO3H)]T[ξDab(CH2SO3H)][Dab][ξDab(CH2SO3H)]II[ξDab(CH2SO3H)][ξDab(CH2SO3H)]T; lactam 4-C; configuration not given here)	13.1	> 25 µM	> 25 µM	> 25 µM	8.25 µM	> 25 µM	2.88	8.06 µM	8.47 µM	> 25 µM	> 25 µM	> 25 µM	8.13 µM	> 25 µM	5.72	20.6	3.84 µM	14.1 µM	7.16	> 25 µM
Cc1ccc(-c2cc3c4c(nc5ccccc53)C(=O)c3cccnc3-c4n2)cc1	10.7	55.4 µM	12.7 µM	49.9 µM	56.4 µM	> 100 µM	1.85	> 50.1 µM	0.583 µM	> 100 µM	29.7 µM	> 100 µM	34.7 µM	> 94.4 µM	4.37	16.5	5.55 µM	21.9 µM	6.68	26.7 µM
Cn1nc(C(F)(F)F)cc1-c1c[nH]c(OCc2ccc(Cl)cc2)c(-c2ccc(Cl)c(C(F)(F)F)c2)c1=O	1.74	> 40.5 µM	0.784 µM	5.07 µM	1.26 µM	4.27 µM	1.19	19.5 µM	1.16 µM	3.03 µM	0.917 µM	2.91 µM	1.36 µM	4.19 µM	1.27	4.26	0.552 µM	6.15 µM	1.24	3.96 µM
COc1ccc2c(c1)oc(=O)c1cc(OC)ccc12	> 100	> 100 µM	> 100 µM	> 100 µM	> 100 µM	> 100 µM	> 100	> 100 µM	> 100 µM	> 100 µM	> 100 µM	> 100 µM	> 100 µM	> 100 µM	> 100	> 100	> 100 µM	> 100 µM	> 100	> 100 µM
C=C1C(=O)O[C@H]2C[C@@H]1CC/C(C)=C/CC/C(C)=C/CC[C@@]2(C)O	23.1	74.2 µM	26.4 µM	71.6 µM	24.4 µM	58.1 µM	51	> 100 µM	24.5 µM	> 100 µM	34.6 µM	> 100 µM	> 100 µM	> 100 µM	44.4	> 100	27.4 µM	79 µM	24.9	59.3 µM
CC(N)(/C=C/c1ccccc1)C(=O)O (centres undefined)	–	> 100 µM	–	> 100 µM	–	> 100 µM	–	> 100 µM	–	> 100 µM	–	> 100 µM	–	> 100 µM	–	> 100	–	> 100 µM	–	> 100 µM
S=C(NCCNC(=S)[S][Sn]([c]1ccccc1)([c]1ccccc1)[c]1ccccc1)[S][Sn]([c]1ccccc1)([c]1ccccc1)[c]1ccccc1	0.0429	0.216 µM	0.0177 µM	0.0696 µM	0.0639 µM	0.144 µM	0.0145	0.0384 µM	0.0222 µM	0.309 µM	0.0386 µM	0.146 µM	0.0231 µM	0.0799 µM	0.0267	0.0976	0.0265 µM	0.0941 µM	0.0682	0.203 µM
CC/C(=C(/c1ccc(O)cc1)c1ccc(OCCN)cc1)c1ccccc1	4.62	15.5 µM	1.91 µM	4.06 µM	11.6 µM	30.7 µM	2.96	8.01 µM	3 µM	9.07 µM	1.64 µM	4.18 µM	5.06 µM	18 µM	1.81	3.48	4.26 µM	9.36 µM	3.73	8.01 µM
C[C@]12CC[C@@H]3c4cc(OC(F)F)c(OS(N)(=O)=O)cc4CC[C@H]3[C@@H]1CC[C@@H]2OS(N)(=O)=O	1.88	28.7 µM	0.593 µM	15.8 µM	4.24 µM	33.2 µM	2.17	28.4 µM	1.06 µM	47.7 µM	1.46 µM	19.8 µM	6.14 µM	33.2 µM	0.631	17.7	0.689 µM	12.7 µM	0.781	3.84 µM
N=C(N)SCc1c2ccccc2c(CSC(=N)N)c2ccccc12	18.2	78.4 µM	12.4 µM	32.4 µM	6.44 µM	30.6 µM	12.4	30.2 µM	1.24 µM	8.23 µM	7.28 µM	27.7 µM	10.4 µM	22.6 µM	10.9	25.5	3.23 µM	30.7 µM	5.11	19.4 µM
N=N/C(=C\c1c(O)[nH]c2ccccc12)c1ccccc1	–	> 100 µM	–	> 66.4 µM	–	99.1 µM	–	44.2 µM	–	> 100 µM	–	> 100 µM	–	> 90.2 µM	–	> 65.9	–	86.7 µM	–	37.9 µM
c1ccc2cc(NCNc3ccc4ccccc4c3)ccc2c1	–	35 µM	–	46.4 µM	–	46.5 µM	–	29.2 µM	–	29.9 µM	–	42.7 µM	–	> 100 µM	–	29.1	–	49.5 µM	–	71.3 µM
N#Cc1c(N2CCOCC2)nc(=S)[nH]c1-c1ccccc1	3.15	> 100 µM	24.9 µM	> 100 µM	14.3 µM	> 100 µM	16.9	> 100 µM	10.7 µM	> 100 µM	9.29 µM	> 100 µM	8.48 µM	98.6 µM	19.9	> 100	13.8 µM	> 100 µM	13.2	> 100 µM
O=[N+]([O-])c1ccc(C2CC(c3ccccc3)=Nc3ccccc3S2)cc1 (centres undefined)	13.3	> 100 µM	8.03 µM	> 100 µM	> 100 µM	> 100 µM	11.8	> 100 µM	6.04 µM	> 100 µM	> 100 µM	> 100 µM	> 100 µM	> 100 µM	51	> 100	> 100 µM	> 100 µM	> 100	> 100 µM
CCNC(=O)Nc1ccc(Oc2ccnc3ccc4c(ccn4C)c23)cc1	> 100	> 100 µM	37.9 µM	> 100 µM	28.2 µM	72.8 µM	19.7	42.2 µM	58.2 µM	> 100 µM	0.236 µM	0.961 µM	19.4 µM	56.5 µM	> 100	> 100	43.8 µM	> 100 µM	23.6	85.1 µM
COC(=O)C1=CO[C@@H](OC2OC(CO)C(O)C(O)C2O)[C@H]2[C@@H](C)[C@@H](O)[C@@H](O)[C@@H]12 (some centres undefined)	–	> 100 µM	–	> 100 µM	–	> 100 µM	–	> 100 µM	–	> 100 µM	–	> 100 µM	–	> 100 µM	–	> 100	–	> 100 µM	–	> 100 µM
O=C(NCc1cccnc1)C1COc2cc(-c3cc(=O)c4ccccc4o3)ccc2O1 (centres undefined)	–	> 100 µM	–	> 100 µM	–	> 57.1 µM	–	> 100 µM	–	> 100 µM	–	> 84.3 µM	–	> 100 µM	–	> 100	–	> 100 µM	–	16.4 µM
COc1cccc(/C=N/NC(=O)c2ccccc2N2CCCC2)c1O	7.05	> 100 µM	1.76 µM	> 100 µM	1.84 µM	9.06 µM	3.3	> 100 µM	1.52 µM	> 100 µM	3.97 µM	> 100 µM	4.9 µM	90.6 µM	3.08	24.2	2.54 µM	> 100 µM	3.73	24.1 µM
O=C(OC1CCC2OOC1O2)c1ccc([N+](=O)[O-])cc1 (centres undefined)	–	> 100 µM	–	> 100 µM	–	> 100 µM	–	> 100 µM	–	> 100 µM	–	> 100 µM	–	> 100 µM	–	> 100	–	> 100 µM	–	> 100 µM
O=C1NC2C(=CC(O)C(O)C2O)c2cc3c(cc21)OCO3 (centres undefined)	0.393	9.21 µM and 3.01 µM	0.406 µM and 0.216 µM	9.97 µM and 6.41 µM	0.598 µM and 0.388 µM	4.46 µM and 2.34 µM	0.441	2.36 µM and 1.42 µM	0.305 µM and 0.454 µM	0.511 µM and 1.24 µM	0.331 µM and 0.158 µM	1.7 µM and 1.8 µM	0.232 µM and 0.272 µM	7.09 µM and 4.31 µM	0.424	1.41	0.352 µM and 0.105 µM	0.574 µM and 1.41 µM	0.237	1.41 µM and 1.85 µM
C[C@@H](NC(=O)/C(C#N)=C/c1ccc([N+](=O)[O-])cc1)c1ccccc1	2.9	8.13 µM	1.85 µM	3.88 µM	1.78 µM	3.69 µM	2.39	5.65 µM	3.02 µM	7.3 µM	2.37 µM	6.47 µM	8.33 µM	23.3 µM	2.05	4.42	1.71 µM	3.47 µM	1.7	3.37 µM
COc1cc(C(=O)N2CCN(c3ccccc3)CC2)c2ccccc2n1	0.0965	> 100 µM	0.149 µM	> 100 µM	12.7 µM	> 100 µM	0.0241	0.0687 µM	0.863 µM	> 100 µM	0.043 µM	> 22.5 µM	0.0993 µM	> 100 µM	0.0582	0.805	0.0324 µM	0.475 µM	0.0973	–
COc1ccc2c(c1)CC[C@@H]1[C@@H]2CC[C@]2(C)c3c(cc(C(=O)O)c4sccc34)C[C@@H]12	29.7	> 100 µM	10.8 µM	32 µM	23 µM	55.4 µM	24.7	72.1 µM	10.1 µM	25.4 µM	33.8 µM	63.7 µM	26 µM	61.2 µM	18.2	37.1	24.7 µM	86.8 µM	16.7	35.1 µM
COc1ccc(Nc2cc(C)nc(NCc3ccccc3)n2)cc1	6.67	23.4 µM	2.8 µM	11.9 µM	6.14 µM	21.3 µM	7.27	24.5 µM	5.5 µM	26.9 µM	3.9 µM	17.2 µM	8.84 µM	23.8 µM	2.11	7.52	3.62 µM	19.2 µM	4.24	16.7 µM
COc1cc2c(cc1OC)CC(=O)Nc1cc(OC)c(OC)cc1CC2	–	> 100 µM	–	> 100 µM	–	> 100 µM	–	> 100 µM	–	> 100 µM	–	> 100 µM	–	> 100 µM	–	> 100	–	47.5 µM	–	97.2 µM
CCOC(=O)Nc1nc2ccc(Br)cc2s1	> 50	> 50 µM	> 50 µM	> 50 µM	> 50 µM	> 50 µM	> 50	> 50 µM	> 50 µM	> 50 µM	> 50 µM	> 50 µM	> 50 µM	> 50 µM	> 50	> 50	> 50 µM	> 50 µM	> 50	> 50 µM
